The subject of assay [1] is control cell lines (HACAT, HEK293T, CRL-7250, NIH-3T3). The experiment in a line: qHTS cell viability, control cell lines as a group (mean AUC, Control.avg). The assay is classed as cell-based. For orientation: Quantitative high-throughput screening tests each substance at several concentrations.
Assay [2] concerns MCC cell lines (WAGA, MKL-1, MKL-2, MCC13, MCC26, UISO). In words: qHTS cell viability, all six MCC cell lines as a group (mean AUC, MCC.avg). In kind it is cell-based, human.
The subject of a further assay is HEK293T cells. In words: qHTS cell viability (CellTiter-Glo, 72 h; primary screen), control cell line. In kind it is cell-based, human.
Assay [3] deals with VP-MCC cell lines (WAGA, MKL-1, MKL-2). In words: qHTS cell viability, VP-MCC cell lines as a group (mean AUC, VP.MCC.avg). The assay is classed as cell-based, human.
The next assay concerns CRL-7250 cells. The experiment in a line: qHTS cell viability (CellTiter-Glo, 72 h; primary screen), control cell line. In kind it is cell-based.
A further assay has as its system MKL-1 cells (VP-MCC). The experiment in a line: qHTS cell viability (CellTiter-Glo, 72 h; primary and follow-up small molecule screen). The assay is classed as cell-based, human.
The test system of a further assay is HACAT cells. The experiment in a line: qHTS cell viability (CellTiter-Glo, 72 h; primary screen), control cell line. The assay is classed as cell-based, human.
The subject of the next assay is NIH-3T3 cells. The description is as above. In kind it is cell-based, mouse.
For assay [4], the system named is VN-MCC cell lines (MCC13, MCC26, UISO). The experiment in a line: qHTS cell viability, VN-MCC cell lines as a group (mean AUC, VN.MCC.avg). The assay is classed as cell-based, human.
The test system of a further assay is MCC13 cells (VN-MCC). In words: qHTS cell viability (CellTiter-Glo, 72 h; primary and follow-up small molecule screen). In kind it is cell-based, human.
Another assay deals with UISO cells (VN-MCC). The description is as above. In kind it is cell-based, human.
In a further assay the test system is MCC26 cells (VN-MCC). The description is as above. In kind it is cell-based, human.
The test system of the next assay is WAGA cells (VP-MCC). The description is as above. The assay is classed as cell-based, human.
In a further assay the test system is MKL-2 cells (VP-MCC). Described as above. The assay is classed as cell-based, human.
For assay [5], the system named is six MCC cell lines and four control cell lines. In words: qHTS cell viability, all 10 cell lines screened. In kind it is cell-based.
Where [6] appears, read: NPC library, mean AUC of control cell lines.
Where [7] appears, read: NPC library, mean AUC of six MCC cell lines.
Where [8] appears, read: NPC library, qHTS dose-response AUC, HEK293T control.
Where [9] appears, read: NPC library, mean AUC of VP-MCC cell lines.
Where [10] appears, read: NPC library, therapeutic window: Control avg AUC minus VP-MCC avg AUC.
[11] abbreviates: NPC library, qHTS dose-response AUC, CRL7250 control.
Where [12] appears, read: NPC library, qHTS dose-response AUC, MKL1.
Where [13] appears, read: NPC library, qHTS dose-response AUC, HACAT control.
[14] abbreviates: NPC library, qHTS dose-response AUC, NIH3T3 control.
[15] abbreviates: NPC library, mean AUC of VN-MCC cell lines.
Where [16] appears, read: NPC library, therapeutic window: Control avg AUC minus VN-MCC avg AUC.
Setting [17] is: NPC library, qHTS dose-response AUC, MCC13.
The mark [18] stands for this setting: NPC library, qHTS dose-response AUC, UISO.
The mark [19] stands for this setting: NPC library, qHTS dose-response AUC, MCC26.
The mark [20] stands for this setting: NPC library, qHTS dose-response AUC, WAGA.
Where [21] appears, read: NPC library, qHTS dose-response AUC, MKL2.
[22] abbreviates: NPC library, therapeutic window: Control avg AUC minus MCC avg AUC.

Where a name gives a salt, the structure may show the parent alone. Read-outs that look alike come from different tables or passages of the source.

`CCCCOc1ccc(C(=O)CCN2CCCCC2)cc1` [Dyclonine hydrochloride] displayed a Control_Avg_AUC in assay [1] (setting [6]) of 461.654. The compound also showed an MCC_Avg_AUC in [2] (setting [7]) of 443.147. The HEK293T_AUC with HEK293T cells (setting [8]) is listed as 441.492. The VP-MCC_Avg_AUC in assay [3] (setting [9]) is reported as 410.674. The compound further had a Control-VP-MCC in assay [3] (setting [10]) of 50.9798. Moreover, the CRL7250_AUC in the assay with CRL-7250 cells (setting [11]) is 454.097. The compound also returned an MKL1_AUC with MKL-1 cells (VP-MCC) (setting [12]) of 424.663. For the same compound, the HACAT_AUC in the assay on HACAT cells (setting [13]) worked out at 461.491. Further, the NIH3T3_AUC with NIH-3T3 cells (setting [14]) came out at 489.536. The VN-MCC_Avg_AUC in assay [4] (setting [15]) came out at 475.619. The same compound yielded a Control-VN-MCC in [4] (setting [16]) of -13.9648. Also, the MCC13_AUC in the assay on MCC13 cells (VN-MCC) (setting [17]) is 493.918. The compound also came in with a UISO_AUC in the assay with UISO cells (VN-MCC) (setting [18]) of 466.874. The same compound yielded an MCC26_AUC in the assay with MCC26 cells (VN-MCC) (setting [19]) of 466.065. This compound yielded a WAGA_AUC with WAGA cells (VP-MCC) (setting [20]) of 405.649. Moreover, the MKL2_AUC in the assay on MKL-2 cells (VP-MCC) (setting [21]) is on record as 401.71. The same compound displayed a Control-MCC in assay [5] (setting [22]) of 18.5075.

`CCOC(=O)[C@H](CCc1ccccc1)N[C@@H](C)C(=O)N1CCC[C@H]1C(=O)O` [Enalapril]: the Control_Avg_AUC in [1] (setting [6]) is listed as 477.153. Besides, the MCC_Avg_AUC in assay [2] (setting [7]) is 387.746. In the assay on HEK293T cells (setting [8]), this compound yielded an HEK293T_AUC of 487.46. The VP-MCC_Avg_AUC in [3] (setting [9]) is listed as 264.734. In addition, the Control-VP-MCC in assay [3] (setting [10]) worked out at 212.42. Also, the CRL7250_AUC in the assay with CRL-7250 cells (setting [11]) is recorded as 492.563. Moreover, the MKL1_AUC in the assay on MKL-1 cells (VP-MCC) (setting [12]) is given as 312.443. Also, the HACAT_AUC in the assay on HACAT cells (setting [13]) is 446.912. This compound showed an NIH3T3_AUC in the assay with NIH-3T3 cells (setting [14]) of 481.677. In assay [4] (setting [15]), this compound showed a VN-MCC_Avg_AUC of 510.759. Also, in assay [4] (setting [16]), the Control-VN-MCC is -33.606. Besides, in the assay with MCC13 cells (VN-MCC) (setting [17]), the MCC13_AUC turned out to be 506.069. Further, the UISO_AUC in the assay on UISO cells (VN-MCC) (setting [18]) came out at 518.678. The MCC26_AUC in the assay with MCC26 cells (VN-MCC) (setting [19]) is given as 507.531. Moreover, the WAGA_AUC in the assay on WAGA cells (VP-MCC) (setting [20]) is 302.495. This compound also yielded an MKL2_AUC in the assay with MKL-2 cells (VP-MCC) (setting [21]) of 179.263. This compound also showed a Control-MCC in assay [5] (setting [22]) of 89.4069.

`CC(O)C(=O)O.CCOc1ccc2nc3cc(N)ccc3c(N)c2c1.O` [Ethacridine lactate hydrate] returned a Control_Avg_AUC in assay [1] of 438.043. In [2], this compound had an MCC_Avg_AUC of 394.957. The compound also gave an HEK293T_AUC in the assay with HEK293T cells of 374.537. In assay [3], the Control-VP-MCC is reported as 76.9894 and the VP-MCC_Avg_AUC came out at 361.054. In the assay on CRL-7250 cells, this compound had a CRL7250_AUC of 429.434. Also, in the assay with MKL-1 cells (VP-MCC), the MKL1_AUC worked out at 391.16. Besides, in the assay on HACAT cells, the HACAT_AUC is given as 492.059. The compound also returned an NIH3T3_AUC in the assay on NIH-3T3 cells of 456.142. In assay [4], this compound came in with a Control-VN-MCC of 9.1824 and a VN-MCC_Avg_AUC of 428.861. The same compound registered an MCC13_AUC in the assay on MCC13 cells (VN-MCC) of 439.497. The UISO_AUC in the assay on UISO cells (VN-MCC) is given as 374.889. Moreover, the MCC26_AUC in the assay with MCC26 cells (VN-MCC) was 472.196. In the assay with WAGA cells (VP-MCC), this compound had a WAGA_AUC of 335.85. This compound also returned an MKL2_AUC in the assay on MKL-2 cells (VP-MCC) of 356.151. Also, the Control-MCC in [5] came to 43.0859.
